Where two headings read alike, the source gives them in different places.
Tests used:
Rhesus PDE2A3 = Rhesus PDE2A3 (Macaca mulatta, UniProt B3VTJ2); test: PDE2 fluorescence polarization (IMAP FP) inhibition assay, rhesus enzyme; format: biochemical, rhesus macaque
Summary of the method: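 Rhesus PDE2A3 came from lysate of transiently transfected AD293 cells, diluted to give 20% substrate conversion. Substrate was 50 nM FAM-cAMP with 1 uM cGMP activator in Tris pH 7.2/MgCl2 buffer, run 60 min at room temperature over 10-point 3-fold dilutions in 1% DMSO. Read-out was IMAP fluorescence polarization (mP) after ≥1 h binding.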

human PDE2A1 = human PDE2A1 (Homo sapiens (Human), UniProt O00408); test: IMAP FP PDE selectivity panel, human PDE2A1; format: biochemical
Sequence of human PDE2A1 (O00408 other isoform, or with tags, fused parts or gaps): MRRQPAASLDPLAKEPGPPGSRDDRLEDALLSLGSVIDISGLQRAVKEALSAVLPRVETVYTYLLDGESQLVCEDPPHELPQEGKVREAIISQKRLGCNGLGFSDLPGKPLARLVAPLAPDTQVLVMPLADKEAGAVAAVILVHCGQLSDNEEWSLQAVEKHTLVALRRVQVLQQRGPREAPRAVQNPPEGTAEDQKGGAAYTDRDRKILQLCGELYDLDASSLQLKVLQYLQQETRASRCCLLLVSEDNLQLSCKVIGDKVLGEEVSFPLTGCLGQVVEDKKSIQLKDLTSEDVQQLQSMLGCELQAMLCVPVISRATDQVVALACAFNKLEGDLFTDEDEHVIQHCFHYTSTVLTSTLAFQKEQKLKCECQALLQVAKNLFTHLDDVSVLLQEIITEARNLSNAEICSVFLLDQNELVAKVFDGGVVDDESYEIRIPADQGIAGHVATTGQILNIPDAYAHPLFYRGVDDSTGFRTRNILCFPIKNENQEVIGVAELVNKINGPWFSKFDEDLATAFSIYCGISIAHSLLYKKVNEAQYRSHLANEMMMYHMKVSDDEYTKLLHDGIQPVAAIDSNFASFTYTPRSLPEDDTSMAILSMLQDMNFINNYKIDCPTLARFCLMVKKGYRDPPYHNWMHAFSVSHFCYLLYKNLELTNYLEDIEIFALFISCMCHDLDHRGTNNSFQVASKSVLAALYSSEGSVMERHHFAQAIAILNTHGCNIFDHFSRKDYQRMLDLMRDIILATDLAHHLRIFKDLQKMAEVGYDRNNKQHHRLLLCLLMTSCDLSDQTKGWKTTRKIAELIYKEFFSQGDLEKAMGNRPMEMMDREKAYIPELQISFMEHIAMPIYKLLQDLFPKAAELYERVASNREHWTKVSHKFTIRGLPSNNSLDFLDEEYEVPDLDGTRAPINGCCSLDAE
Summary of the method: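 GST-tagged human PDE2A1 expressed in insect cells, run at room temperature for 60 min with 50 nM FAM-cAMP containing 1000 nM cGMP, pH 7.2 Tris/MgCl2 buffer. IMAP fluorescence polarization read after binding step.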

[1] = Rhesus PDE2, Lab B, read-out: Rhesus PDE2 Ki (nM) - Lab B
[2] = Human PDE2, Lab B, read-out: Human PDE2 Ki (nM) - Lab B
[3] = Rhesus PDE2, Lab A, read-out: Rhesus PDE2 Ki (nM) - Lab A
[4] = Human PDE2, Lab A, read-out: Human PDE2 Ki (nM) - Lab A

Sequence of Rhesus PDE2A3 (B3VTJ2 1-941): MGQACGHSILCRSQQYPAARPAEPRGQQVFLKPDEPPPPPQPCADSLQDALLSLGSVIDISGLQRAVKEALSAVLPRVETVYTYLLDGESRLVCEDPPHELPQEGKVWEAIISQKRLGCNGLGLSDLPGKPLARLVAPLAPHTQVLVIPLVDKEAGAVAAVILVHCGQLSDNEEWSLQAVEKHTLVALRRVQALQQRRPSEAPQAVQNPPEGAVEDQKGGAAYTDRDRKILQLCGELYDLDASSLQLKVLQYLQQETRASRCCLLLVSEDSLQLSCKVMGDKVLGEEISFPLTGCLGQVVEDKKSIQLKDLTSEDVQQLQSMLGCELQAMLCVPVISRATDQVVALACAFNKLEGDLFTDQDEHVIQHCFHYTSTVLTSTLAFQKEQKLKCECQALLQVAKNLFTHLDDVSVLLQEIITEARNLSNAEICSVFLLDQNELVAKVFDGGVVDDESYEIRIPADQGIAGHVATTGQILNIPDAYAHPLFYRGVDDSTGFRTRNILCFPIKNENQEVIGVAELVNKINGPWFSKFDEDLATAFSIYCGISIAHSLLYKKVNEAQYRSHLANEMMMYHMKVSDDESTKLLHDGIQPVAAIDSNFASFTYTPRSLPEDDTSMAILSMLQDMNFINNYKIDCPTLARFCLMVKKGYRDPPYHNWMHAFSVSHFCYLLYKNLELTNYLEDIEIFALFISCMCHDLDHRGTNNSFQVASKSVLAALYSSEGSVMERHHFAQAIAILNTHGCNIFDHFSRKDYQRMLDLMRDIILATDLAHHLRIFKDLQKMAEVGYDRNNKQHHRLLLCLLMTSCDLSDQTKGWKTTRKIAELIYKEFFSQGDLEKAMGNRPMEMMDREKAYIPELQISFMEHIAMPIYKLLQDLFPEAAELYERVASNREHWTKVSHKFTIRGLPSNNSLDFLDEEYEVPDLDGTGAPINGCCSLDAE

With `COc1ccc(Cc2nc(C(=O)N[C@@H](c3ccc(C(F)(F)F)c(F)c3)C3CC3)cc(=O)[nH]2)cc1F` [Example 522, N-{(R)-cyclopropyl[3-fluoro-4-(trifluoromethyl)phenyl]methyl}-2-(3-fluoro-4-methoxybenzyl)-6-oxo-1,6-dihydropyrimidine-4-carboxamide] the Ki (Rhesus PDE2A3; [1]) was 2.9 nM and the Ki (human PDE2A1; [2]) was 2.6 nM.
In the case of `CC[C@@H](NC(=O)c1cc(=O)[nH]c(COC)n1)c1ccc(OC(F)(F)F)cc1` [Example 119, 2-(methoxymethyl)-6-oxo-N-{(1R)-1-[4-(trifluoromethoxy)phenyl]propyl}-1,6-dihydropyrimidine-4-carboxamide], the Ki (Rhesus PDE2A3; [3]) is reported as 74 nM, the Ki (Rhesus PDE2A3; [1]) is reported as 53 nM and the Ki (human PDE2A1; [4]) is reported as 17 nM.
`C[C@@H](NC(=O)c1cc(=O)[nH]c(Cc2cccnc2)n1)c1ccc(C(F)(F)F)cc1` [Example 6, 6-oxo-2-(pyridin-3-ylmethyl)-N-{(1R)-1-[4-(trifluoromethyl)phenyl]ethyl}-1,6-dihydropyrimidine-4-carboxamide] showed a Ki (Rhesus PDE2A3; [3]) of 55 nM and a Ki (human PDE2A1; [4]) of 33 nM.
Compound `COCc1nc(C(=O)N[C@H](C)c2ccc(OC(F)(F)F)cc2)cc(=O)[nH]1` [Example 113, 2-(methoxymethyl)-6-oxo-N-{(1R)-1-[4-(trifluoromethoxy)phenyl]ethyl}-1,6-dihydropyrimidine-4-carboxamide] has a Ki (Rhesus PDE2A3; [3]) of 84 nM and a Ki (human PDE2A1; [4]) of 16 nM.
`CC[C@@H](NC(=O)c1cc(=O)[nH]c(Cc2ccc(OC)c(F)c2)n1)c1ccc(SC(F)(F)F)c(F)c1` [Example 519, 2-(3-fluoro-4-methoxybenzyl)-N-[(1R)-1-{3-fluoro-4-[(trifluoromethyl)sulfanyl]phenyl}propyl]-6-oxo-1,6-dihydropyrimidine-4-carboxamide] gave a Ki (Rhesus PDE2A3; [1]) of 1.7 nM and a Ki (human PDE2A1; [2]) of 2 nM.
With `COc1cccc(Cc2nc(C(=O)N[C@H](C)c3ccc(C(F)(F)F)cc3)cc(=O)[nH]2)c1` [Example 140, 2-(3-methoxybenzyl)-6-oxo-N-{(1R)-1-[4-(trifluoromethyl)phenyl]ethyl}-1,6-dihydropyrimidine-4-carboxamide] the Ki (Rhesus PDE2A3; [3]) was 6.5 nM and the Ki (human PDE2A1; [4]) was 5.1 nM.
`COc1ccc(Cc2nc(C(=O)N[C@@H](c3ccc(C(F)(F)F)cc3)C3CC3)cc(=O)[nH]2)cc1F` [Example 525, N-{(R)-cyclopropyl[4-(trifluoromethyl)phenyl]methyl}-2-(3-fluoro-4-methoxybenzyl)-6-oxo-1,6-dihydropyrimidine-4-carboxamide] was tested, and the Ki (Rhesus PDE2A3; [1]) was 2.3 nM and the Ki (human PDE2A1; [2]) was 1.9 nM.
`CC(C)(C)[C@@H](NC(=O)c1cc(=O)[nH]c(C2CC2)n1)c1ccc(OC(F)(F)F)c(F)c1` [Example 437, 2-cyclopropyl-N-{(1R)-1-[3-fluoro-4-(trifluoromethoxy)phenyl]-2,2-dimethylpropyl}-6-oxo-1,6-dihydropyrimidine-4-carboxamide] gave a Ki (Rhesus PDE2A3; [1]) of 1.2 nM and a Ki (human PDE2A1; [2]) of 1.2 nM.
Compound `Cc1nc(C(=O)N[C@H](C)c2ccc(OC(F)(F)F)cc2F)cc(=O)[nH]1` [Example 21, N-{(1R)-1-[2-fluoro-4-(trifluoromethoxy)phenyl]ethyl}-2-methyl-6-oxo-1,6-dihydropyrimidine-4-carboxamide] has a Ki (Rhesus PDE2A3; [3]) of 46 nM and a Ki (human PDE2A1; [4]) of 98 nM.
Compound `O=C(N[C@@H](c1ccc(OC(F)(F)F)cc1)C1CC1)c1cc(=O)[nH]c(-c2ccccc2)n1` [Example 175, N-{(R)-cyclopropyl[4-(trifluoromethoxy)phenyl]methyl}-6-oxo-2-phenyl-1,6-dihydropyrimidine-4-carboxamide] has a Ki (Rhesus PDE2A3; [3]) of 3.9 nM and a Ki (human PDE2A1; [4]) of 3.9 nM.
`Cc1nc(C(=O)N[C@@H](c2ccc(C(F)(F)F)cc2)C(C)C)cc(=O)[nH]1` [Example 316, 2-methyl-N-{(1R)-2-methyl-1-[4-(trifluoromethyl)phenyl]propyl}-6-oxo-1,6-dihydropyrimidine-4-carboxamide] was tested, and the Ki (Rhesus PDE2A3; [3]) was 13 nM and the Ki (human PDE2A1; [4]) was 7.1 nM.
`Cc1nc(C(=O)NC(C)(c2ccc(S(F)(F)(F)(F)F)cc2)C(C)C)cc(=O)[nH]1` (single isomer, unassigned) [Example 663, (R)- or (S)-N-{1,2-dimethyl-1-[4-(pentafluoro-λ^6-sulfanyl)phenyl]propyl}-2-methyl-6-oxo-1,6-dihydropyrimidine-4-carhoxamide] gave a Ki (Rhesus PDE2A3; [1]) of 30 nM and a Ki (human PDE2A1; [2]) of 34 nM.
`CC[C@@H](NC(=O)c1cc(=O)[nH]c(C)n1)c1ccc(OC(F)(F)F)cc1` [Example 31, 2-methyl-6-oxo-N-{(1R)-1-[4-(trifluoromethoxy)phenyl]propyl}-1,6-dihydropyrimidine-4-carboxamide] showed a Ki (Rhesus PDE2A3; [3]) of 28 nM and a Ki (human PDE2A1; [4]) of 15 nM.
`Cc1nc(C(=O)N[C@@H](c2ccc(SC(F)(F)F)c(F)c2)C(C)C)cc(=O)[nH]1` [Example 53, N-[(1R)-1-{3-fluoro-4-[(trifluoromethyl)sulfanyl]phenyl}-2-methylpropyl]-2-methyl-6-oxo-1,6-dihydropyrimidine-4-carboxamide] was tested, and the Ki (Rhesus PDE2A3; [3]) was 3.6 nM and the Ki (human PDE2A1; [4]) was 2.8 nM.
For `O=C(NC1(c2ccc(SC(F)(F)F)cc2)CC1)c1cc(=O)[nH]c(C2CC2)n1` [Example 199, 2-cyclopropyl-6-oxo-N-(1-{4-[(trifluoromethyl)sulfanyl]phenyl}cyclopropyl)-1,6-dihydropyrimidine-4-carboxamide], the Ki (Rhesus PDE2A3; [3]) was 12 nM and the Ki (human PDE2A1; [4]) was 7 nM.
For `C[C@@H](NC(=O)c1cc(=O)[nH]c(-c2ccccc2)n1)c1ccc(-c2ccccc2)cc1` [Example 279, N-[(1R)-1-biphenyl-4-ylethyl]-6-oxo-2-phenyl-1,6-dihydropyrimidine-4-carboxamide], the Ki (Rhesus PDE2A3; [3]) was 24 nM and the Ki (human PDE2A1; [4]) was 16 nM.
Work on `COC(=O)C(NC(=O)c1cc(=O)[nH]c(C)n1)c1ccc(C(F)(F)F)cc1` (racemic) [Example 325, Methyl 2-(2-methyl-6-oxo-1,6-dihydropyrimidine-4-carboxamido)-2-(4-(trifluoromethyl)phenyl)-acetate] yielded a Ki (Rhesus PDE2A3; [3]) of 1100 nM and a Ki (human PDE2A1; [4]) of 687 nM.
With `Cc1nc(C(=O)N[C@H](C)c2ccc(C3CC3)cc2)cc(=O)[nH]1` [Example 258, N-[(1R)-1-(4-cyclopropylphenyl)ethyl]-2-methyl-6-oxo-1,6-dihydropyrimidine-4-carboxamide] the Ki (Rhesus PDE2A3; [3]) was 19 nM, the Ki (Rhesus PDE2A3; [1]) was 41 nM and the Ki (human PDE2A1; [2]) was 39 nM.
For `COc1cc(OC(F)(F)F)ccc1C(C)NC(=O)c1cc(=O)[nH]c(-c2ccccc2)n1` (centres unmarked) [Example 187, N-{1-[2-methoxy-4-(trifluoromethoxy)phenyl]ethyl}-6-oxo-2-phenyl-1,6-dihydropyrimidine-4-carboxamide], the Ki (Rhesus PDE2A3; [3]) was 4.5 nM and the Ki (human PDE2A1; [4]) was 3.1 nM.
For `CC[C@@H](NC(=O)c1cc(=O)[nH]c(-c2ccccc2)n1)c1ccc(OC(F)(F)F)c(F)c1` [Example 172], the Ki (Rhesus PDE2A3; [3]) was 2.7 nM and the Ki (human PDE2A1; [4]) was 1.9 nM.
With `COCc1nc(C(=O)N[C@H](C)c2ccc(C(F)(F)F)c(F)c2)cc(=O)[nH]1` [Example 125, N-{(1R)-1-[3-fluoro-4-(trifluoromethyl)phenyl]ethyl}-2-(methoxymethyl)-6-oxo-1,6-dihydropyrimidine-4-carboxamide] the Ki (Rhesus PDE2A3; [3]) was 176 nM and the Ki (human PDE2A1; [4]) was 45 nM.
In the case of `COc1cc(C(F)(F)F)ccc1[C@@H](C)NC(=O)c1cc(=O)[nH]c(C2CC2)n1` [Example 219, 2-cyclopropyl-N-{(1R)-1-[2-methoxy-4-(trifluoromethyl)phenyl]ethyl}-6-oxo-1,6-dihydropyrimidine-4-carboxamide], the Ki (Rhesus PDE2A3; [3]) is reported as 43 nM and the Ki (human PDE2A1; [4]) is reported as 31 nM.
`CC[C@@H](NC(=O)c1cc(=O)[nH]c(Cc2ccc(OC)cc2)n1)c1ccc(OC(F)(F)F)cc1` [Example 485, 2-(4-methoxybenzyl)-6-oxo-N-{(1R)-1-[4-(trifluoromethoxy)phenyl]propyl}-1,6-dihydropyrimidine-4-carboxamide] showed a Ki (Rhesus PDE2A3; [1]) of 1.9 nM and a Ki (human PDE2A1; [2]) of 1.5 nM.
For `CC(C)[C@@H](NC(=O)c1cc(=O)[nH]c(-c2ncccn2)n1)c1ccc(OC(F)(F)F)cc1` [Example 75, N-{(1R)-2-methyl-1-[4-(trifluoromethoxy)phenyl]propyl}-6-oxo-1,6-dihydro-2,2′-bipyrimidine-4-carboxamide], the Ki (Rhesus PDE2A3; [3]) was 5.1 nM and the Ki (human PDE2A1; [4]) was 3 nM.
With `Cc1nc(C(=O)N[C@H](C)c2cccc3ccccc23)cc(=O)[nH]1` [Example 301, (R)-2-methyl-N-(1-(naphthalen-1-yl)ethyl)-6-oxo-1,6-dihydropyrimidine-4-carboxamide] the Ki (Rhesus PDE2A3; [3]) was 53 nM and the Ki (human PDE2A1; [4]) was 66 nM.
Work on `Cc1nc(C(=O)N[C@@H](c2ccc(OC(F)(F)F)c(F)c2)C2CC2)cc(=O)[nH]1` [Example 40, N-{(R)-cyclopropyl[3-fluoro-4-(trifluoromethoxy)phenyl]methyl}-2-methyl-6-oxo-1,6-dihydropyrimidine-4-carboxamide] yielded a Ki (Rhesus PDE2A3; [3]) of 19 nM and a Ki (human PDE2A1; [4]) of 9.3 nM.
Compound `Cc1nc(C(=O)NC(C)c2ccc(C(F)(F)F)cc2C)cc(=O)[nH]1` (centres unmarked) [Example 25, 2-methyl-N-{1-[2-methyl-4-(trifluoromethyl)phenyl]ethyl}-6-oxo-1,6-dihydropyrimidine-4-carboxamide] has a Ki (Rhesus PDE2A3; [3]) of 1140 nM and a Ki (human PDE2A1; [4]) of 663 nM.
Compound `O=C(NC1(c2ccc(C(F)(F)F)cc2)CCC1)c1cc(=O)[nH]c(C2CC2)n1` [Example 143, 2-cyclopropyl-6-oxo-N-{1-[4-(trifluoromethyl)phenyl]cyclobutyl}-1,6-dihydropyrimidine-4-carboxamide] has a Ki (Rhesus PDE2A3; [3]) of 21 nM and a Ki (human PDE2A1; [4]) of 11 nM.
With `CC(C)c1ccc([C@@H](C)NC(=O)c2cc(=O)[nH]c(C3CC3)n2)cc1` [Example 298, 2-cyclopropyl-N-{(1R)-1-[4-(1-methylethyl)phenyl]ethyl}-6-oxo-1,6-dihydropyrimidine-4-carboxamide] the Ki (Rhesus PDE2A3; [3]) was 18 nM and the Ki (human PDE2A1; [4]) was 13 nM.
`CC(NC(=O)c1cc(=O)[nH]c(-c2ccccc2)n1)c1ccc(-n2cccn2)cc1` (centres unmarked) [Example 350, 6-oxo-2-phenyl-N-{1-[4-(1H-pyrazol-1-yl)phenyl]ethyl}-1,6-dihydropyrimidine-4-carboxamide] was tested, and the Ki (Rhesus PDE2A3; [3]) was 21 nM and the Ki (human PDE2A1; [2]) was 39 nM.
